Drawing on PubChem BioAssay (NCI), this text covers GI50 and TGI for two compounds.

Some test systems named below: CCRF-CEM leukemia; HT29 colon; K-562 leukemia; MDA-MB-231 breast; SK-MEL-2 melanoma; SN12C renal; SNB-19 CNS; TK-10 renal; U251 CNS; UACC-62 melanoma.
Common to all, as to test: inhibition of tumour cell growth, NCI panel, 48 h

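Five concentrations, 48 hours, 96-well plates. Here, GI50 denotes the concentration required for 50% inhibition of growth. TGI is the concentration that stops growth completely.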

Regarding `COc1cc2c3c(n(CCCNCCCNCCCNCCCN)c(=O)c2cc1OC)-c1cc2c(cc1C3=O)OCO2`, the GI50 in the assay on CCRF-CEM leukemia is 301 nM; in the assay with HT29 colon, 2280 nM; in the assay on K-562 leukemia, 2050 nM; with MDA-MB-231 breast, 2430 nM; in the assay with SK-MEL-2 melanoma it was 4780 nM; with SN12C renal it was 1560 nM. Besides, the GI50 in the assay on SNB-19 CNS is 2230 nM; in the assay on TK-10 renal, 2800 nM; with U251 CNS, 1330 nM; in the assay with UACC-62 melanoma it was 1680 nM. The TGI was 2160 nM in the assay with CCRF-CEM leukemia; 16400 nM with HT29 colon; 5220 nM in the assay with K-562 leukemia; 7790 nM in the assay on MDA-MB-231 breast; 89000 nM in the assay with SK-MEL-2 melanoma; 9350 nM with SN12C renal. Also, the TGI amounted to 15400 nM in the assay on SNB-19 CNS, 5800 nM in the assay with TK-10 renal, 3810 nM in the assay with U251 CNS and 6190 nM in the assay on UACC-62 melanoma.
Take `CN1CCN(c2cc(C(=O)Nc3cc4cc(-c5cnn(C)c5)ccc4cn3)ccn2)CC1`: the GI50 with CCRF-CEM leukemia was 155 nM; in the assay on HT29 colon, 182 nM; in the assay on K-562 leukemia, 72.7 nM; in the assay on MDA-MB-231 breast it was 219 nM; in the assay with SK-MEL-2 melanoma, 113 nM; in the assay with SN12C renal, 123 nM. Also, the GI50 is 121 nM with SNB-19 CNS, 202 nM in the assay on TK-10 renal, 188 nM in the assay on U251 CNS and 192 nM with UACC-62 melanoma. Moreover, the TGI with CCRF-CEM leukemia is greater than 39200 nM; in the assay with HT29 colon it was 442 nM; with K-562 leukemia it was greater than 100000 nM; in the assay with MDA-MB-231 breast it was 3750 nM; in the assay on SK-MEL-2 melanoma, 364 nM; in the assay with SN12C renal it was 12700 nM. Moreover, the TGI came to 12000 nM in the assay on SNB-19 CNS, 11400 nM in the assay on TK-10 renal, 13200 nM with U251 CNS and 646 nM in the assay with UACC-62 melanoma.
